Data as given in PMC6982966 (Molecules, 2019).
Like-named read-outs stand apart in the source and are kept apart here.

Assays:
human CK2 holoenzyme [1] = biological target: T1, human CK2 holoenzyme (Homo sapiens, UniProt P68400); assay: biochemical; settings: newly synthesized indeno[1,2-b]indoles
T1 construct: made in house; host or cells: Escherichia coli

human CK2 holoenzyme [2] = biological target: T1, human CK2 holoenzyme; settings: recombinant human CK2, compounds published before, cited from earlier work; for Tested pIC50: pIC50 = -logIC50
MCF-7 cells = assay: MTT cell viability assay; format: cell-based, human; settings: for reduction of cell viability: after 24 h and 48 h
Description: The effect of the four naphtho[2,3-b]furan-4,9-dione derivatives on cell viability was evaluated using an MTT assay with MCF-7 cells (human breast adenocarcinoma cell line). […]. It is important to note that some compounds with a naphtho[2,3-b]furan-4,9-dione backbone are known to have anticancer effects and are highly cytotoxic, and other natural naphtho[2,3-b]furan-4,9-dione derivatives, which are found in the lapacho (Tabebuia) tree, are known to have different biological activities, such as antibacterial, antifungal, anti-inflammatory, and antitumor activities.
Bars represent the mean values of three measurements (n = 3). Error bars illustrate the corresponding standard deviations (± SD).
The effect of CK2 inhibitors on the viability of MCF-7 cells was evaluated using an MTT assay. MCF-7 breast cancer cells (kindly provided by the Department of Clinical Radiology of the University Hospital Muenster, Germany) were cultured in RPMI 1640 medium containing GlutaMax (Life Technologies, Darmstadt, Germany) and 10% fetal calf serum. The MTT assay was performed in 96-well plates. Cells were seeded at a density of 1 × 10^5 cells per well, then incubated […] at 37 °C in a humidified atmosphere (5% CO2). After overnight incubation, the seeding medium was removed and replaced with fresh medium containing the inhibitor at 0.01, 0.1, 1, and 10 μM. DMSO at a final concentration of 1% served as a control. Afterward, the MTT reagent (Sigma Aldrich, Darmstadt, Germany) was added at a final concentration of 0.5 mg/mL. After incubation for 2 h at 37 °C, the medium was discarded and 200 µL DMSO was added for the solubilization of the formazan. After mixing, the absorption was determined at 570 nm with a reference wavelength of 630 nm using a microplate reader. CK2 inhibitors were tested in triplicate, and the experiments were repeated three times.

[3] = recombinant human CK2, read-out: Tested IC50
[4] = recombinant human CK2, pIC50 = -logIC50, read-out: Tested pIC50 (converted)
[5] = Tested IC50, recombinant human CK2
[6] = Tested pIC50, recombinant human CK2, pIC50 = -logIC50

T1 sequence (P68400 whole entry): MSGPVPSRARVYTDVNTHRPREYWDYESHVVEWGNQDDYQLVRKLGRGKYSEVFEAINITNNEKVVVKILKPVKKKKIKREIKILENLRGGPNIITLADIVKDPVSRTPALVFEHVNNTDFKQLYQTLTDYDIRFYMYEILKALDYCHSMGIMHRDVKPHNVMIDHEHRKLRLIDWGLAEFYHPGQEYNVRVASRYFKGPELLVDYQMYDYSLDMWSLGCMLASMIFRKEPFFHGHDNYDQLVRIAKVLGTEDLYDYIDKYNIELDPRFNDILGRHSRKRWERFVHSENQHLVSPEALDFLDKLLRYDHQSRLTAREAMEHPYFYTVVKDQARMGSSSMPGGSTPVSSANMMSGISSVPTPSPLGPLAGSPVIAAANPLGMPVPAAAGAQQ
T1 sequence (P67870 whole entry partner): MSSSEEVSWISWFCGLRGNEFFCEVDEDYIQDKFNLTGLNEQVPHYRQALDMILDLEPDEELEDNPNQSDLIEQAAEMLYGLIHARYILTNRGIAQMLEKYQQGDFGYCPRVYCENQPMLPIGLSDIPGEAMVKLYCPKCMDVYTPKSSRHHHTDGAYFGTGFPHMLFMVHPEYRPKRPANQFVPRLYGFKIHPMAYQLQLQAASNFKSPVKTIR

## O=c1ccc(=O)c2c1[nH]c1c3ccccc3c(=O)c12 [6a]
Human CK2 holoenzyme [1]; [3]
  IC50: 1780 nM
Human CK2 holoenzyme [1]; [4]
  IC50: 1780 nM

## CC(C)C1CC(=O)c2c3c(n(C(C)C)c2C1)-c1ccccc1C3=O (centres unmarked) [4y]
Human CK2 holoenzyme [2]
  Tested pIC50: 6.2150

## Cn1c2c(=O)ccc(=O)c2c2c(=O)c3ccccc3c21 [6b]
Human CK2 holoenzyme [1]; [5]
  IC50: 1120 nM
Human CK2 holoenzyme [1]; [6]
  IC50: 1120 nM

## COc1cccc2c(=O)c3c4c(=O)ccc(=O)c4n(C(C)C)c3c12 [6f]
Human CK2 holoenzyme [1]; [3]
  IC50: 870 nM
Human CK2 holoenzyme [1]; [4]
  IC50: 871 nM

## COc1ccc2c(=O)c3c4c(=O)ccc(=O)c4n(C(C)C)c3c2c1 [6e]
Human CK2 holoenzyme [1]; [5]
  IC50: 4160 nM
Human CK2 holoenzyme [1]; [6]
  IC50: 4160 nM

## CC(C)n1c2c(c3c1-c1cccc(Br)c1C3=O)C(=O)CCC2 [4j]
Human CK2 holoenzyme [1]; [6]
  IC50: 140 nM

## Cc1cccc2c1C(=O)c1c3c(n(C(C)C)c1-2)CCCC3=O [4h, 5-isopropyl-1-methyl-5,6,7,8-tetrahydroindeno[1,2-b]indole-9,10-dione]
other
  melting point: 235 °C
Human CK2 holoenzyme [1]; [6]
  IC50: 110 nM

## CC(C)n1c2c(c3c1-c1cc(Br)cc(Br)c1C3=O)C(=O)CCC2 [4w, 1,3-dibromo-5-isopropyl-5,6,7,8-tetrahydroindeno[1,2-b]indole-9,10-dione]
other
  melting point: 276 °C
Human CK2 holoenzyme [1]; [6]
  IC50: 110 nM

## CC(C)n1c2c(c3c1-c1cccc(C(F)(F)F)c1C3=O)C(=O)CCC2 [4i]
Human CK2 holoenzyme [1]; [6]
  IC50: 210 nM

## Cc1oc2c(c1C(=O)NCCCn1ccnc1)C(=O)c1ccccc1C2=O [compound 01893208, 1-(3-(2-methyl-4,9-dioxo-4,9-dihydronaphtho[2,3-b]furan-3-carboxamido)propyl)-1H-imidazol-3-ium]
MCF-7 cells; MCF-7, 1 µM
  reduction of cell viability: around 90%
MCF-7 cells; MCF-7, 10 µM
  reduction of cell viability: more than 90%

## Cc1oc2c(c1C(=O)NCc1cccnc1)C(=O)c1ccccc1C2=O [compound 37867960, 2-methyl-4,9-dioxo-N-(pyridin-3-ylmethyl)-4,9-dihydronaphtho[2,3-b]furan-3-carboxamide]
MCF-7 cells; MCF-7, 1 µM
  reduction of cell viability: around 90%
MCF-7 cells; MCF-7, 10 µM
  reduction of cell viability: more than 90%

## CCn1c2c(=O)ccc(=O)c2c2c(=O)c3ccccc3c21 [6c]
Human CK2 holoenzyme [1]; [3]
  IC50: 1580 nM

## O=C1c2ccccc2-c2[nH]c3cccc(O)c3c21 [5a]
Human CK2 holoenzyme [1]; [3]
  IC50: 2220 nM
Human CK2 holoenzyme [1]; [4]
  IC50: 2220 nM

## COC(=O)CCCOc1ccc2c(c1)-c1c(c3c(n1C(C)C)CCCC3=O)C2=O [4r]
Human CK2 holoenzyme [1]; [6]
  IC50: 520 nM

## COC(=O)COc1ccc2c(c1)-c1c(c3c(n1C(C)C)CCCC3=O)C2=O [4p]
Human CK2 holoenzyme [1]; [5]
  IC50: 1520 nM
Human CK2 holoenzyme [1]; [6]
  IC50: 1520 nM

## CC(=O)Oc1ccc2c(c1)-c1c(c3c(n1C(C)C)CCCC3=O)C2=O [4q]
Human CK2 holoenzyme [1]; [5]
  IC50: 3210 nM
Human CK2 holoenzyme [1]; [6]
  IC50: 3210 nM

## CC(C)n1c2c(=O)ccc(=O)c2c2c(=O)c3c(Br)cccc3c21 [6d]
Human CK2 holoenzyme [1]; [3]
  IC50: 1350 nM
Human CK2 holoenzyme [1]; [4]
  IC50: 1350 nM

## Cc1oc2c(c1C(=O)N1CCOCC1)C(=O)c1ccccc1C2=O [compound 01236034, 2-methyl-3(morpholine-4-carbonyl)naphto[2,3-b] furan-4,9-dione]
MCF-7 cells; MCF-7, 10 µM, after 48 h
  cell viability reduced to: 60%

## COc1ccccc1CCn1c2c(c3c1-c1ccccc1C3=O)C(=O)CCC2 [4e]
Human CK2 holoenzyme [2]; read-out: Tested IC50
  IC50: 1400 nM
Human CK2 holoenzyme [2]
  Tested pIC50: 5.8540

## Cc1cc(=O)c2c3c(=O)c4ccccc4c3n(C(C)C)c2c1=O [6g]
Human CK2 holoenzyme [2]
  Tested pIC50: 6.3660

## CC(C)n1c2c(c3c1-c1cc(OCCCC(=O)O)ccc1C3=O)C(=O)CCC2 [4s]
Human CK2 holoenzyme [1]; [6]
  IC50: 1510 nM

## Cc1oc2c(c1C(=O)NCCC(C)C)C(=O)c1ccccc1C2=O [compound 00082235, N-isopentyl-2-methyl-4,9-dioxo-4,9-dihydronaphtho[2,3-b]furan-3-carboxamide]
MCF-7 cells; MCF-7, 10 µM
  reduction of cell viability: more than 90%
